What was measured:
[1] = system: BCL-2 G101V knock-in cell line H96 (derive from RS4;11); assay: Bcl 2-G101V Knock-In RS4;11 Cell Proliferation Assay; type: cell-based; conditions: Homo sapiens, RS4;11 Bcl-2 G101V knock-in clone H96, 48 hrs, CellTiter-GLO, read-out: Cellular proliferation assay (IC50, nM) RS4
Procedure, shortened: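 H96, a CRISPR-generated RS4;11 clone carrying BCL2-G101V knock-in (WES/RNA-seq validated), seeded 50,000 per well and exposed 48 h at 37 °C to 10-point dilutions topping at 1 or 10 μM. Viability by CellTiter-Glo luminescence; mean IC50.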

[2] = target: Recombinant human Bcl-2 protein (Homo sapiens (Human), UniProt P10415); assay: Bcl-2 TR-FRET Assay; type: binding; conditions: Bcl-2 wild type, TR-FRET; read-out: Biochemical assay (IC50, nM) Bcl-2 WT
Procedure, shortened: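 Compounds were pre-incubated with 0.05 nM recombinant Bcl-2 for 0.5 h at room temperature in potassium phosphate buffer, pH 7.5. FITC-Bak peptide (0.5 nM) and Tb-cryptate antibody were then added for 1 h. Percent inhibition from TR-FRET signals gave IC50 values.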

[3] = system: RS4;11 (BCL-2 dependent acute lymphoblastic leukemia cell line); assay: RS4;11 Cell Proliferation Assay; type: cell-based; conditions: Homo sapiens, RS4-11, RS4;11 cells, read-out: Cellular proliferation assay (IC50, nM) RS4
Procedure, shortened: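 RS4;11 cells, 50,000 per well in RPMI-1640 with 10% FBS, treated 48 h at 37 °C with a 10-point dilution series topping at 1 μM. Viability read by CellTiter-Glo ATP luminescence; mean IC50 reported.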

[4] = system: recombinant human Bcl-2-G101V protein; assay: Bcl-2-G101V TR-FRET Assay; type: binding; conditions: ratio of biochemical IC50 Bcl-2 G101V / Bcl-2 WT
Procedure, shortened: (§1)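 Measures how compounds block Bcl-2-G101V engaging its ligand, by TR-FRET with 337 nm excitation and a 490/520 nm emission ratio; dose-response data give IC50 via a four-parameter logistic model.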

[5] = target: recombinant human Bcl-2-G101V protein (Homo sapiens (Human), UniProt P10415, G101V); assay: Bcl-2-G101V TR-FRET Assay; type: binding; conditions: Bcl-2 G101V mutant, TR-FRET; read-out: Biochemical assay (IC50, nM) Bcl-2 G101V
Procedure, shortened: as §1

| SMILES | IC50 [1] [nM] | IC50 [2] [nM] | IC50 [3] [nM] | Ratio of Bcl-2 G101V/WT [4] | IC50 [5] [nM] |
| --- | --- | --- | --- | --- | --- |
| COc1ccc(OC2CCN(C3CC4(CCN(c5ccc(C(=O)NS(=O)(=O)c6ccc(NC[C@H]7CC[C@](C)(O)CC7)c([N+](=O)[O-])c6)c(Oc6cnc7[nH]ccc7c6)c5)CC4)C3)C(c3ccccc3C(C)C)C2)cc1 (stereo partly drawn) [Example 138, 2-((1H-pyrrolo[2,3-b]pyridin-5-yl)oxy)-N-((4-((((1r,4r)-4-hydroxy-4-methylcyclohexyl)methyl)amino)-3-nitrophenyl)sulfonyl)-4-(2-(2-(2-isopropylphenyl)-4-(4-methoxyphenoxy)piperidin-1-yl)-7-azaspiro[3.5]nonan-7-yl) benzamide] | 3 | 0.36 | 0.44 | 4.1 | 1.5 |
| CCc1ccccc1C1CN(Cc2ccc(OC)cc2)CCN1C1CC2(CCN(c3ccc(C(=O)NS(=O)(=O)c4ccc(NC[C@H]5CC[C@](C)(O)CC5)c([N+](=O)[O-])c4)c(Oc4cnc5[nH]ccc5c4)c3)CC2)C1 (stereo partly drawn) [Example 76, 2-((1H-pyrrolo[2,3-b]pyridin-5-yl)oxy)-4-(2-(2-(2-ethylphenyl)-4-(4-methoxybenzyl)piperazin-1-yl)-7-azaspiro[3.5]nonan-7-yl)-N-((4-((((1r,4r)-4-hydroxy-4-methylcyclohexyl)methyl)amino)-3-nitrophenyl)sulfonyl)benzamide] | 6.5 | 0.074 | 0.69 | 17 | 1.3 |
| COc1ccc(CN2CCN(C3CC4(CCN(c5ccc(C(=O)NS(=O)(=O)c6ccc(NC[C@H]7CC[C@](C)(O)CC7)c([N+](=O)[O-])c6)c(Oc6cnc7[nH]ccc7c6)c5)CC4)C3)C(c3ccccc3CN3CCOCC3)C2)cc1 (stereo partly drawn) [Example 37, 2-((1H-pyrrolo[2,3-b]pyridin-5-yl)oxy)-N-((4-((((1r,4r)-4-hydroxy-4-methylcyclohexyl)methyl)amino)-3-nitrophenyl)sulfonyl)-4-(2-(4-(4-methoxybenzyl)-2-(2-(morpholinomethyl)phenyl)piperazin-1-yl)-7-azaspiro[3.5]nonan-7-yl)benzamide] | 289 | 0.42 | 77.4 | 28.6 | 12 |
| CC(C)c1ccccc1[C@@H]1CN(Cc2ccc(F)c(F)c2)CCN1C1CC2(C1)CN(c1ccc(C(=O)NS(=O)(=O)c3ccc(NC[C@H]4CC[C@](C)(O)CC4)c([N+](=O)[O-])c3)c(Oc3cnc4[nH]ccc4c3)c1)C2 [Example 244, 2-((1H-pyrrolo[2,3-b]pyridin-5-yl)oxy)-4-(6-((R)-4-(3,4-difluorobenzyl)-2-(2-isopropylphenyl)piperazin-1-yl)-2-azaspiro[3.3]heptan-2-yl)-N-((4-((((1r,4r)-4-hydroxy-4-methylcyclohexyl)methyl)amino)-3-nitrophenyl)sulfonyl)benzamide] | 1.36 | 0.25 | 0.2 | 3.3 | 0.83 |
| CC(C)c1ccccc1[C@@H]1CN(Cc2ccnc3c2OCC(C)(C)O3)CCN1C1CC2(C1)CN(c1ccc(C(=O)NS(=O)(=O)c3ccc(NC[C@H]4CC[C@](C)(O)CC4)c([N+](=O)[O-])c3)c(Oc3cnc4[nH]ccc4c3)c1)C2 [Example 316, 2-((1H-pyrrolo[2,3-b]pyridin-5-yl)oxy)-4-(6-((R)-4-((3,3-dimethyl-2,3-dihydro-[1,4]dioxino[2,3-b]pyridin-8-yl)methyl)-2-(2-isopropylphenyl)piperazin-1-yl)-2-azaspiro[3.3]heptan-2-yl)-N-((4-((((1r,4r)-4-hydroxy-4-methylcyclohexyl)methyl)amino)-3-nitrophenyl)sulfonyl)benzamide] | 0.53 | 0.022 | 0.16 | 4.5 | 0.1 |
| COc1cc(CN2CCN(C3CC4(C3)CN(c3ccc(C(=O)NS(=O)(=O)c5ccc(NC[C@H]6CC[C@](C)(O)CC6)c([N+](=O)[O-])c5)c(Oc5cnc6[nH]cc(F)c6c5)c3)C4)[C@H](c3ccccc3C(C)C)C2)cc2c1OCCC2(F)F [Example 354, 4-(6-((R)-4-((4,4-difluoro-8-methoxychroman-6-yl)methyl)-2-(2-isopropylphenyl)piperazin-1-yl)-2-azaspiro[3.3]heptan-2-yl)-2-((3-fluoro-1H-pyrrolo[2,3-b]pyridin-5-yl)oxy)-N-((4-((((1r,4r)-4-hydroxy-4-methylcyclohexyl)methyl)amino)-3-nitrophenyl)sulfonyl)benzamide] | 3 | 0.9 | 0.14 | 2.2 | 1.9 |
| COCCN1CCN(C2CC3(CCN(c4ccc(C(=O)NS(=O)(=O)c5ccc(NC[C@H]6CC[C@](C)(O)CC6)c([N+](=O)[O-])c5)c(Oc5cnc6[nH]ccc6c5)c4)CC3)C2)[C@@H](c2ccccc2C(C)C)C1 (single isomer, unassigned) [Example 13a, 2-((1H-pyrrolo[2,3-b]pyridin-5-yl)oxy)-N-((4-((((1r,4r)-4-hydroxy-4-methylcyclohexyl)methyl)amino)-3-nitrophenyl)sulfonyl)-4-(2-((S or R)-2-(2-isopropylphenyl)-4-(2-methoxyethyl)piperazin-1-yl)-7-azaspiro[3.5]nonan-7-yl)benzamide] | 87.4 | 0.038 | 10.5 | 94.7 | 3.6 |
| CC(C)c1ccccc1[C@@H]1CN(Cc2ccc3c(c2)OCC3)CCN1C1CC2(CCN(c3ccc(C(=O)NS(=O)(=O)c4ccc(NC[C@H]5CC[C@](C)(O)CC5)c([N+](=O)[O-])c4)c(Oc4cnc5[nH]cc(F)c5c4)c3)CC2)C1 [Example 305, 4-(2-((R)-4-((2,3-dihydrobenzofuran-6-yl)methyl)-2-(2-isopropylphenyl)piperazin-1-yl)-7-azaspiro[3.5]nonan-7-yl)-2-((3-fluoro-1H-pyrrolo[2,3-b]pyridin-5-yl)oxy)-N-((4-((((1r,4r)-4-hydroxy-4-methylcyclohexyl)methyl)amino)-3-nitrophenyl)sulfonyl) benzamide] | 1.3 | 0.19 | 0.32 | 3.2 | 0.6 |
| COc1cc(CN2CCN(C3CC4(C3)CN(c3ccc(C(=O)NS(=O)(=O)c5ccc(NC[C@H]6CC[C@](C)(O)CC6)c([N+](=O)[O-])c5)c(Oc5cnc6[nH]ccc6c5)c3)C4)[C@H](c3ccccc3C(C)C)C2)cc(C)c1OC [Example 234, 2-((1H-pyrrolo[2,3-b]pyridin-5-yl)oxy)-4-(6-((R)-4-(3,4-dimethoxy-5-methylbenzyl)-2-(2-isopropylphenyl)piperazin-1-yl)-2-azaspiro[3.3]heptan-2-yl)-N-((4-((((1r,4r)-4-hydroxy-4-methylcyclohexyl)methyl)amino)-3-nitrophenyl)sulfonyl)benzamide] | 0.35 | 0.087 | 0.09 | 3.7 | 0.32 |
